In BindingDB's records for doi:10.1021/jm021114j (Cardiff University, 2003):

biological target: Sterol 24-C-methyltransferase (Leishmania major); test: In vitro inhibitory concentration against Leishmania major Sterol 24-C-methyltransferase (24-SMT)

| IC50 | Structure (SMILES) |
| --- | --- |
| 12.2 µM | CC(O)(C1CCCCN1)[C@H]1CC[C@H]2[C@@H]3CCC4C[C@@H](O[Si](C)(C)C(C)(C)C)CC[C@]4(C)[C@H]3CC[C@]12C (stereo not given in full) |
| 8 µM | CC(O)(C1CCCNC1)[C@H]1CCC2C3CCC4C[C@@H](O[Si](C)(C)C(C)(C)C)CC[C@]4(C)C3CC[C@@]21C (stereo partly drawn) [1-[(3S,10S,13S,17S)-3-(tert-Butyl-dimethyl-silanyloxy)-10,13-dimethyl-hexadecahydro-cyclopenta[a]phenanthren-17-yl]-1-piperidin-3-yl-ethanol] |
| 12.9 µM | CCC(=O)N1CCCCC1C(C)(O)[C@H]1CCC2C3CCC4C[C@@H](O)CC[C@]4(C)C3CC[C@@]21C (stereo partly drawn) [1-{2-[1-Hydroxy-1-((3S,10S,13S,17S)-3-hydroxy-10,13-dimethyl-hexadecahydro-cyclopenta[a]phenanthren-17-yl)-ethyl]-piperidin-1-yl}-propan-1-one] |
| 0.1 µM | CC(O)(C1CCCNC1)[C@H]1CCC2C3CCC4C[C@@H](O)CC[C@]4(C)C3CC[C@@]21C (stereo partly drawn) [(3S,10S,13S,17S)-17-(1-Hydroxy-1-piperidin-3-yl-ethyl)-10,13-dimethyl-hexadecahydro-cyclopenta[a]phenanthren-3-ol] |
| 38.5 µM | CC(O)(c1cccnc1)[C@H]1CCC2C3CCC4C[C@@H](O)CC[C@]4(C)C3CC[C@@]21C (stereo partly drawn) [(3S,10S,13S,17S)-17-(1-Hydroxy-1-pyridin-3-yl-ethyl)-10,13-dimethyl-hexadecahydro-cyclopenta[a]phenanthren-3-ol] |
